Experimental data: paper PMC5306082, “Physiologically based kinetic modeling of the bioactivation of myristicin” (Archives of Toxicology, 2016)
Where two headings read alike, the source gives them in different places.

Legend:
[1] = Sulfonation of 1′-hydroxymyristicin, male rat liver S9; format: in vitro ADME
Experimental: (§1) The formation of 1′-sulfoxymyristicin was determined using incubations containing male rat liver Sprague–Dawley or pooled gender human liver S9 proteins, PAPS as a cofactor, and GSH, which acts as a scavenger of the reactive carbocation formed due to the unstable nature of the 1′-sulfoxy metabolite in an aqueous environment (van den Berg et al. [2012]; Martati et al. [2011]; Al-Subeihi et al. [2011]). Incubation mixtures containing (final concentrations) 10 mM of GSH, 0.2 mM of PAPS, and 3 mg/ml of S9 proteins in 0.1 M potassium phosphate (pH 8.2) were pre-incubated for 1 min at 37 °C. After the pre-incubation, 1′-hydroxymyristicin dissolved in DMSO was added in final concentrations ranging between 10 and 6000 μM while keeping the final content of DMSO at 1 % (v/v). The reaction was terminated after 360 min of incubation by adding 25 μl (0.25 times the incubation volume) of ice-cold ACN. The formation of the GSH conjugate of 1′-sulfoxymyristicin was linear with time and S9 protein concentrations under the experimental conditions used. Blank incubations were performed in the absence of PAPS. Incubations were performed in triplicate. All samples were centrifuged for 5 min at 16,000×g, and the supernatant was stored at −20 °C until ultra-performance liquid chromatography (UPLC) analysis.
(§2) Quantification of 1′-sulfoxymyristicin was done using UPLC analysis as described for the estimation of 1′-sulfoxysafrole (Martati et al. [2011]). […] The gradient for analysis of the metabolite consisted of a mixture of ACN and ultrapure water containing 0.1 % (v/v) TFA. The flow rate was 0.6 ml/min, starting at 0 % ACN and increasing the percentage of ACN to 20 % over 0.2 min, followed by an increase to 30 % ACN over 4.3 min, then increasing to 100 % over 0.3 min, and keeping it at 100 % for 0.2 min, and finally decreasing to 0 % over 0.2 min and keeping it at 0 % for 0.8 min. Separation and purification of the GSH adduct of 1′-sulfoxymyristicin was performed by collecting the peak of the metabolite from the UPLC column. […]

[2] = Sulfonation of 1′-hydroxymyristicin, human liver S9; format: in vitro ADME
Experimental: as §1, §2

[3] = Microsomal conversion of myristicin, human liver microsomes; format: in vitro ADME
Experimental: (§3) First, it was determined which organs are involved in the biotransformation of myristicin in rat and human. For this purpose, liver, kidney, lung, and small intestine microsomes from male Sprague–Dawley rat and pooled gender human were used. Incubations were performed by adding myristicin to incubation mixtures containing 1 mg/mL of the microsomal protein preparations and 3 mM NADPH in 0.2 M Tris–HCl (pH 7.4). After 1 min of pre-incubation at 37 °C, myristicin (final concentration, 1000 μM) was added from a 100 times concentrated stock solution in DMSO so that the final DMSO content was 1 % (v/v). Incubations were carried out for 30 min after which the reactions were terminated by adding 25 µl (0.25 times the incubation volume) of ice-cold ACN. Samples were centrifuged for 5 min at 13,000×g, and the supernatant was stored at −20 °C until UPLC analysis. As metabolism of myristicin was observed only in incubations with liver microsomes for male rats and pooled gender human, the determination of kinetic constants for the formation of microsomal metabolites was performed only for the liver fractions. Incubations to determine kinetic constants were performed following the conditions described above using final concentrations of myristicin from 25 to 1000 μM for rat and human liver. In all incubations, the final concentration of DMSO, in which myristicin was dissolved, was kept at 1 % (v/v). The formation of different microsomal metabolites was linear with time and microsomal protein concentration under the conditions described. Blank incubations were performed in the absence of the cofactor NADPH. All incubations were performed in triplicate.
(§4) Secondary metabolism of the relevant 1′-hydroxy metabolite of myristicin was taken into account by determining the kinetic constants for its conversion in (a) glucuronidation, (b) sulfation, and (c) oxidation, again under conditions that allowed adequate definition of kinetic constants and with <10 % substrate conversion. Incubation samples were subjected to UPLC analysis that was performed as described previously (Punt et al. [2008]). Identification was achieved by comparing the UV spectra of the formed metabolites to the spectra of the synthesized 1′-hydroxymyristicin and 1′-oxomyristicin reference standards. Quantification of all formed metabolites was done by comparing the peak areas to those of calibration curves of the corresponding reference compounds, determined using UPLC with photodiode array detection (UPLC-PDA). The UPLC system was composed of a Waters (Waters, Milford, MA) Acquity solvent manager, sample manager, and photodiode array detector, equipped with Water Acquity UPLC BEH C18 column.
(§5) The gradient for analysis of microsomal metabolites was performed with 100 % ACN and ultrapure water containing 0.1 % (v/v) TFA. The flow rate was 0.6 ml/min. The gradient started at 10 % ACN, increased to 50 % ACN over 4 min, increased to 80 % over 0.5 min, followed by decrease to 10 % ACN over 0.5 min, and finally kept at 10 % for 1 min.

rat urine = system: rat urine; design: method as in Beyer et al. [2006]; conditions: single oral dose 100 mg/kg bw myristicin, urine over 24 h; ref Beyer et al. [2006]; cited from earlier work
[4] = Microsomal conversion of myristicin, male rat liver microsomes; format: in vitro ADME
Experimental: as §3, §4, §5

male B6C3F1 mice = conditions: total dose 3.75 or 4.75 µmol injected over 22 days, 12 or 18 months; ref Miller et al. [1983]; cited from earlier work
[5] = system: Cultured human HepG2 cells; conditions: harvested after 24 h, ref Zhou et al. (2007a), cited from earlier work
Mouse liver CD-1 = conditions: cited from earlier work; for pmol Adduct/mg DNA: female, livers 24 h after treatment
[6] = ref EFSA [2012]; Zhou et al. [2007b]; cited from earlier work
[7] = system: freshly isolated rat hepatocytes in primary culture; conditions: 10^−6 to 10^−3 M; ref Howes et al. [1990]; cited from earlier work
pregnant ICR mice = conditions: single dose of 6 mg myristicin by gastric intubation; ref Randerath et al. [1993]; cited from earlier work
[8] = Metabolism of myristicin by rat small intestine, lung, kidney microsomes; format: in vitro ADME; conditions: 1000 μM myristicin, 1 mg/mL microsomal protein, NADPH, 30 min
Experimental: as §3, with “The formation of different microsomal metabolites was linear with time and microsomal protein concentration under the conditions described. Blank incubations were performed in the absence of the cofactor NADPH. All incubations were performed in triplicate.” left out

DNA = conditions: ref Zhou et al. [2007a]; Kobets et al. [2016]; Phillips et al. [1984]; Randerath et al. [1984]; cited from earlier work
New born mice B6C3F1 = conditions: male, injections on days 1, 8, 15, 22 after birth, ref Phillips et al. (1984), cited from earlier work
[9] = Margin of exposure (MOE) risk assessment; conditions: BMDL10 of safrole
Description: The margin-of-exposure (MOE) concept was applied to assess the possible risks for human health resulting from the daily exposure to myristicin (JECFA [2005]; EFSA [2005]; Barlow et al. [2006]; O’Brien et al. [2006]). The MOE is a dimensionless ratio based on a reference point representing a dose causing a low but measurable cancer incidence in experimental animals (e.g., a BMDL10), which is divided by the estimated daily intake in humans (EFSA [2005]). […] The estimated daily intake of safrole from spice and spice oil in the USA amounts to 0.001 mg/kg bw per day (WHO [2009]).

[10] = Metabolism of myristicin by human small intestine, lung, kidney microsomes; format: in vitro ADME; conditions: 1000 μM myristicin, 1 mg/mL microsomal protein, NADPH, 30 min
Experimental: as §3, with “The formation of different microsomal metabolites was linear with time and microsomal protein concentration under the conditions described. Blank incubations were performed in the absence of the cofactor NADPH. All incubations were performed in triplicate.” left out

[11] = uptake from GI tract, assumed from fast and complete absorption of safrole; ref Punt et al. [2008]; cited from earlier work
rats or mice = conditions: chronic oral exposure to high doses, or male CD-1 mice preweaning; ref Borchert et al. [1973]; Drinkwater et al. [1976]; National Toxicology [2000]; cited from earlier work
experimental animals = conditions: tumor formation; ref van den Berg et al. [2011]; cited from earlier work
[12] = S9 protein yield 143 mg/g liver
[13] = formation of the metabolite from myristicin, NADPH, mean of three ± SD
[14] = formation of the metabolite from myristicin, Vmax/Km × 1000
[15] = from myristicin, scaled Vmax/Km
[16] = 80 mg/kg bw i.p., ref Randerath et al. (1984)
[17] = 400 mg/kg bw i.p., ref Randerath et al. (1984)

Compound: C=CC(OS(=O)(=O)O)c1cc(OC)c2c(c1)OCO2 (stereo not shown) [1′-Sulfoxymyristicin, 1′-sulfoxymyristicin]
- k, first-order rate constant for product formation ([1]; S9, PAPS, GSH trapping): 17.6 × 10^−6 ml/min/mg protein
- k Scaled [1, 12]: 0.15 ml/hr/g tissue
- k, first-order rate constant for product formation ([2]; S9, PAPS, GSH trapping): 16.3 × 10^−6 ml/min/mg protein
- k Scaled [2, 12]: 0.14 ml/hr/g tissue

Compound: C=CCc1cc(O)c(O)c(OC)c1 [5-Allyl-2,3-dihydroxyanisole, 5-allyl-2,3-dihydroxyanisole]
- Vmax [3, 13]: 0.93 ± 0.13 nmol min^−1 (mg microsomal or S9 protein)^−1
- In vitro catalytic efficiency [3, 14]: 7.881 μl min^−1 (mg microsomal or S9 protein)^−1
- Scaled Vmax, in vivo ([3]; from myristicin, microsomal protein yield 32 mg/g liver): 1.786 μmol/h/g tissue
- In vivo catalytic efficiency [3, 15]: 0.0151 ml/h/g tissue
- metabolite in rat urine, percentage of the total dose (rat urine): 67 % of the total dose
- Vmax [4, 13]: 1.3 ± 0.23 nmol min^−1 (mg microsomal or S9 protein)^−1
- In vitro catalytic efficiency [4, 14]: 39.394 μl min^−1 (mg microsomal or S9 protein)^−1
- Scaled Vmax, in vivo ([4]; from myristicin, microsomal protein yield 35 mg/g liver): 2.73 μmol/h/g tissue
- In vivo catalytic efficiency [4, 15]: 0.0827 ml/h/g tissue
- catalytic efficiency, fold higher than for formation of 3′-hydroxymyristicin ([4]; male rat liver microsomes): approximately sevenfold

Compound: C=CCc1cc(OC)c2c(c1)OCO2 [Myristicin, 1-allyl-5-methoxy-3,4 methylene-dioxybenzene]
- activity for the initiation of hepatic tumors (male B6C3F1 mice): no detectable activity
- pmol Adduct/mg DNA ([5]; 50 uM): 0.017 pmol Adduct/mg DNA
- pmol Adduct/mg DNA ([5]; 150 uM): 0.049 pmol Adduct/mg DNA
- pmol Adduct/mg DNA ([5]; 450 uM): 0.165 pmol Adduct/mg DNA
- pmol Adduct/mg DNA (Mouse liver CD-1; [16]): 16.8 pmol Adduct/mg DNA
- pmol Adduct/mg DNA (Mouse liver CD-1; [17]): 49.5 pmol Adduct/mg DNA
- in vitro genotoxicity [6]: mutagenic
- cytotoxicity [7]: showed cytotoxicity
- level of myristicin adducts in fetal liver (pregnant ICR mice): 63 % of the total adducts
- level of myristicin adducts in maternal liver (pregnant ICR mice): 68 % of the total adducts
- metabolism of myristicin in small intestine, lung, or kidney microsomes [8]: no detectable metabolism
- DNA adduct formation, result (DNA): positive results
- pmol Adduct/mg DNA (New born mice B6C3F1; 36.5 mg/kg bw i.p.): 7.8 pmol Adduct/mg DNA
- MOE ([9]; estimated daily intake of myristicin 0.0019 mg/kg bw per day from herbs and spices): 1000–2684
- metabolism of myristicin in small intestine, lung, or kidney microsomes [10]: no detectable metabolism
- absorption rate constant (ka) [11]: 1.0 h⁻¹

Compound: C=CCc1ccc2c(c1)OCO2 [Safrole, safrole]
- pmol Adduct/mg DNA ([5]; 150 uM): 0.083 pmol Adduct/mg DNA
- pmol Adduct/mg DNA ([5]; 450 uM): 0.102 pmol Adduct/mg DNA
- pmol Adduct/mg DNA (Mouse liver CD-1; [16]): 45.9 pmol Adduct/mg DNA
- pmol Adduct/mg DNA (Mouse liver CD-1; [17]): 203.4 pmol Adduct/mg DNA
- DNA adduct after 140 days (persistence) (Mouse liver CD-1; 400 mg/kg bw safrole, liver 140 days after treatment, ref Randerath et al. (1984)): After admin. of dose 400 mg/kg bw safrole, livers were taken after 24 h, 28, 58, 98, and 140 days after each treatment, after 140 days adduct was 21 pmol/mg DNA
- DNA adduct formation in the liver, times higher for safrole than myristicin (Mouse liver CD-1; mice, i.p. injection, ref Randerath et al. [1984]): 2.7 times
- cytotoxicity [7]: cytotoxicity
- unscheduled DNA synthesis (UDS) [7]: induced unscheduled DNA synthesis (UDS)
- induction of hepatic tumors (rats or mice): induce hepatic tumors
- DNA adduct formation, result (DNA): positive results
- pmol Adduct/mg DNA (New born mice B6C3F1; 30.8 mg/kg bw i.p.): 17.5 pmol Adduct/mg DNA
- MOE ([9]; estimated daily intake of safrole 0.001 mg/kg bw per day from spice and spice oil in the USA): 1900–5100
- BMDL10 (experimental animals): 1.9–5.1 mg/kg bw per day
